The assay deals with human red blood cells.
Where [1] appears, read: read-out: RBC Lysis IC50, pH 5.5, pH 5.5.
The mark [2] stands for this setting: read-out: RBC Lysis IC50, pH 7.4, pH 7.4.

Like-named read-outs stand apart in the source and are kept apart here. Residues, ends and D or L forms follow the SMILES beside them.

The text below walks through data of article PMC6600388 (2019).

“CGLFEAIEGFIENGWEGMIDGWYG(Peg 6)YGRKKRRQRR [Peptide 36d]”: the IC50 by setting is: under setting [1], 1.22 µM; under setting [2], above 10 µM.
Turning to `CC[C@H](C)[C@H](NC(=O)[C@H](CC(C)C)NC(=O)[C@H](CCC(=O)O)NC(=O)[C@H](CCC(=O)O)NC(=O)[C@@H](NC(=O)[C@H](CCC(=O)O)NC(=O)[C@H](CCC(=O)O)NC(=O)[C@H](Cc1ccccc1)NC(=O)[C@H](CC(C)C)NC(=O)CNC(=O)[C@@H](N)CS)[C@@H](C)CC)C(=O)N[C@@H](CCC(=O)O)C(=O)N[C@@H](CCC(=O)O)C(=O)NCC(=O)N[C@@H](CC(C)C)C(=O)N[C@@H](CCC(=O)O)C(=O)N[C@@H](CC(N)=O)C(=O)N[C@@H](CC(C)C)C(=O)N[C@H](C(=O)N[C@@H](CC(=O)O)C(=O)N[C@@H](Cc1c[nH]c2ccccc12)C(=O)N[C@@H](Cc1c[nH]c2ccccc12)C(=O)N[C@@H](Cc1ccc(O)cc1)C(=O)NCC(=O)N[C@@H](Cc1ccc(O)cc1)C(=O)NCC(=O)N[C@@H](Cc1c[nH]cn1)C(=O)N[C@@H](CCCCN)C(=O)N[C@@H](CCCCN)C(=O)N[C@@H](Cc1c[nH]cn1)C(=O)N[C@@H](Cc1c[nH]cn1)C(=O)N[C@@H](CCC(N)=O)C(=O)N[C@@H](Cc1c[nH]cn1)C(=O)N[C@@H](CCCNC(=N)N)C(N)=O)[C@@H](C)CC` [Peptide 69] (H-CGLFEEIEELIEEGLENLIDWWYGYGHKKHHQHR-NH2), the IC50 reads like this: (red cells of human, pH 5.5) 8.73 µM; (red cells of human, pH 7.4) above 20 µM.
Consider “CGLFEAIEGFIENGWEGMIDGWYG(Peg 27)YGRKKRRQRR [Peptide 36f]”, for which the IC50 runs as follows: under setting [1], 28 µM; under setting [2], above 100 µM.
For `CC[C@H](C)[C@H](NC(=O)[C@H](C)NC(=O)[C@H](CCC(=O)O)NC(=O)[C@H](Cc1ccccc1)NC(=O)[C@H](CC(C)C)NC(=O)CNC(=O)[C@@H](N)CS)C(=O)N[C@@H](C)C(=O)NCC(=O)N[C@@H](Cc1ccccc1)C(=O)N[C@H](C(=O)N[C@@H](CCC(=O)O)C(=O)N[C@@H](CC(N)=O)C(=O)NCC(=O)N[C@@H](Cc1c[nH]c2ccccc12)C(=O)N[C@@H](CCC(=O)O)C(=O)NCC(=O)N[C@@H](CCSC)C(=O)N[C@H](C(=O)N[C@@H](CC(=O)O)C(=O)NCC(=O)N[C@@H](Cc1c[nH]c2ccccc12)C(=O)N[C@@H](Cc1ccc(O)cc1)C(=O)NCC(N)=O)[C@@H](C)CC)[C@@H](C)CC` [Peptide 3, reference compound] (H-CGLFEAIAGFIENGWEGMIDGWYG-NH2), the half-maximal inhibitory concentration (IC50) (red cells of human, pH 5.5) was above 20 µM and the IC50 (red cells of human, pH 7.4) was above 20 µM.
`CC[C@H](C)[C@H](NC(=O)[C@H](C)NC(=O)[C@H](CCC(=O)O)NC(=O)[C@H](Cc1ccccc1)NC(=O)[C@H](CC(C)C)NC(=O)CNC(=O)[C@@H](N)CS)C(=O)N[C@@H](CCC(=O)O)C(=O)NCC(=O)N[C@@H](Cc1ccccc1)C(=O)N[C@H](C(=O)N[C@@H](CCC(=O)O)C(=O)N[C@@H](CC(N)=O)C(=O)NCC(=O)N[C@@H](Cc1c[nH]c2ccccc12)C(=O)N[C@@H](CCC(=O)O)C(=O)NCC(=O)N[C@@H](CCSC)C(=O)N[C@H](C(=O)N[C@@H](CC(=O)O)C(=O)NCC(=O)N[C@@H](Cc1c[nH]c2ccccc12)C(=O)N[C@@H](Cc1ccc(O)cc1)C(=O)NCC(N)=O)[C@@H](C)CC)[C@@H](C)CC` [Peptide 4, reference compound]: the IC50 is, setting by setting: (red cells of human, pH 5.5) 16 µM; (red cells of human, pH 7.4) above 20 µM.
The compound `CC[C@H](C)[C@H](NC(=O)[C@H](CC(C)C)NC(=O)[C@H](CCC(=O)O)NC(=O)[C@H](CCC(=O)O)NC(=O)[C@@H](NC(=O)[C@H](CCC(=O)O)NC(=O)[C@H](CCC(=O)O)NC(=O)[C@H](Cc1ccccc1)NC(=O)[C@H](CC(C)C)NC(=O)CNC(=O)[C@@H](N)CS)[C@@H](C)CC)C(=O)N[C@@H](CCC(=O)O)C(=O)N[C@@H](CCC(=O)O)C(=O)NCC(=O)N[C@@H](CC(C)C)C(=O)N[C@@H](CCC(=O)O)C(=O)N[C@@H](CC(N)=O)C(=O)N[C@@H](CC(C)C)C(=O)N[C@H](C(=O)N[C@@H](CC(=O)O)C(=O)N[C@@H](Cc1c[nH]c2ccccc12)C(=O)N[C@@H](Cc1c[nH]c2ccccc12)C(=O)N[C@@H](Cc1ccc(O)cc1)C(=O)NCC(=O)N[C@@H](Cc1ccc(O)cc1)C(=O)NCC(=O)N[C@@H](CCCNC(=N)N)C(=O)N[C@@H](CCCCN)C(=O)N[C@@H](CCCCN)C(=O)N[C@@H](CCCNC(=N)N)C(=O)N[C@@H](CCCNC(=N)N)C(=O)N[C@@H](CCC(N)=O)C(=O)N[C@@H](CCCNC(=N)N)C(=O)N[C@@H](CCCNC(=N)N)C(N)=O)[C@@H](C)CC` [Peptide 68] (H-CGLFEEIEELIEEGLENLIDWWYGYGRKKRRQRR-NH2) registered an IC50 (red cells of human, pH 5.5) of 4.11 µM and a 50% inhibitory concentration (IC50) (red cells of human, pH 7.4) above 20 µM.
For `CC[C@H](C)[C@H](NC(=O)[C@H](C)NC(=O)[C@H](Cc1c[nH]cn1)NC(=O)[C@H](Cc1ccccc1)NC(=O)[C@H](CC(C)C)NC(=O)CNC(=O)[C@@H](N)CS)C(=O)N[C@@H](C)C(=O)N[C@@H](Cc1c[nH]cn1)C(=O)N[C@@H](Cc1ccccc1)C(=O)N[C@H](C(=O)N[C@@H](Cc1c[nH]cn1)C(=O)NCC(=O)NCC(=O)N[C@@H](Cc1c[nH]c2ccccc12)C(=O)N[C@@H](Cc1c[nH]cn1)C(=O)NCC(=O)N[C@@H](CC(C)C)C(=O)N[C@H](C(=O)N[C@@H](Cc1c[nH]cn1)C(=O)NCC(=O)N[C@@H](Cc1c[nH]c2ccccc12)C(=O)N[C@@H](Cc1ccc(O)cc1)C(=O)NCC(=O)N[C@@H](Cc1ccc(O)cc1)C(=O)NCC(=O)N[C@@H](CCCNC(=N)N)C(=O)N[C@@H](CCCCN)C(=O)N[C@@H](CCCCN)C(=O)N[C@@H](CCCNC(=N)N)C(=O)N[C@@H](CCCNC(=N)N)C(=O)N[C@@H](CCC(N)=O)C(=O)N[C@@H](CCCNC(=N)N)C(=O)N[C@@H](CCCNC(=N)N)C(N)=O)[C@@H](C)CC)[C@@H](C)CC` [Peptide 7] (H-CGLFHAIAHFIHGGWHGLIHGWYGYGRKKRRQRR-NH2), in that order: 5.9 µM and 0.3 µM.
`CC[C@H](C)[C@H](NC(=O)[C@H](C)NC(=O)[C@H](CCC(=O)O)NC(=O)[C@H](C)NC(=O)[C@H](CC(C)C)NC(=O)CNC(=O)[C@@H](N)CS)C(=O)N[C@@H](CCC(=O)O)C(=O)NCC(=O)N[C@@H](Cc1ccccc1)C(=O)N[C@H](C(=O)N[C@@H](CCC(=O)O)C(=O)N[C@@H](CC(N)=O)C(=O)NCC(=O)N[C@@H](CC(C)C)C(=O)N[C@@H](CCCCN)C(=O)NCC(=O)N[C@@H](CC(C)C)C(=O)N[C@H](C(=O)N[C@@H](CC(=O)O)C(=O)N[C@@H](Cc1c[nH]c2ccccc12)C(=O)N[C@@H](Cc1c[nH]c2ccccc12)C(=O)N[C@@H](Cc1ccc(O)cc1)C(=O)NCC(=O)N[C@@H](Cc1ccc(O)cc1)C(=O)NCC(=O)N[C@@H](CCCNC(=N)N)C(=O)N[C@@H](CCCCN)C(=O)N[C@@H](CCCCN)C(=O)N[C@@H](CCCNC(=N)N)C(=O)N[C@@H](CCCNC(=N)N)C(=O)N[C@@H](CCC(N)=O)C(=O)N[C@@H](CCCNC(=N)N)C(=O)N[C@@H](CCCNC(=N)N)C(N)=O)[C@@H](C)CC)[C@@H](C)CC` [Peptide 58] (H-CGLAEAIEGFIENGLKGLIDWWYGYGRKKRRQRR-NH2) showed an IC50 (red cells of human, pH 5.5) of 0.06 µM and a concentration for half-maximal inhibition (IC50) (red cells of human, pH 7.4) of 2 µM.
As to `CC[C@H](C)[C@H](NC(=O)[C@H](CCC(=O)O)NC(=O)CNC(=O)[C@H](Cc1ccccc1)NC(=O)[C@H](CC(C)C)NC(=O)CNC(=O)[C@@H](N)CS)C(=O)N[C@@H](CCC(=O)O)C(=O)N[C@@H](CCC(=O)O)C(=O)N[C@@H](CC(C)C)C(=O)N[C@H](C(=O)N[C@@H](CCC(=O)O)C(=O)N[C@@H](CCC(=O)O)C(=O)NCC(=O)N[C@@H](CC(C)C)C(=O)N[C@@H](CCCCN)C(=O)N[C@@H](CC(N)=O)C(=O)N[C@@H](CC(C)C)C(=O)N[C@H](C(=O)N[C@@H](CC(=O)O)C(=O)N[C@@H](Cc1c[nH]c2ccccc12)C(=O)N[C@@H](Cc1c[nH]c2ccccc12)C(=O)N[C@@H](Cc1ccc(O)cc1)C(=O)NCC(=O)N[C@@H](Cc1ccc(O)cc1)C(=O)NCC(=O)N[C@@H](Cc1c[nH]cn1)C(=O)N[C@@H](CCCCN)C(=O)N[C@@H](CCCCN)C(=O)N[C@@H](Cc1c[nH]cn1)C(=O)N[C@@H](Cc1c[nH]cn1)C(=O)N[C@@H](CCC(N)=O)C(=O)N[C@@H](Cc1c[nH]cn1)C(=O)N[C@@H](CCCNC(=N)N)C(N)=O)[C@@H](C)CC)[C@@H](C)CC` [Peptide 62] (H-CGLFGEIEELIEEGLKNLIDWWYGYGHKKHHQHR-NH2), the IC50 runs as follows: (red cells of human, pH 5.5) 1.28 µM; (red cells of human, pH 7.4) above 20 µM.
For `CC[C@H](C)[C@H](NC(=O)[C@H](CCC(=O)O)NC(=O)CNC(=O)[C@H](Cc1ccccc1)NC(=O)[C@H](CC(C)C)NC(=O)CNC(=O)[C@@H](N)CS)C(=O)N[C@@H](CCC(=O)O)C(=O)N[C@@H](CCC(=O)O)C(=O)N[C@@H](CC(C)C)C(=O)N[C@H](C(=O)N[C@@H](CCC(=O)O)C(=O)N[C@@H](CCC(=O)O)C(=O)NCC(=O)N[C@@H](CC(C)C)C(=O)N[C@@H](CCCCN)C(=O)N[C@@H](CC(N)=O)C(=O)N[C@@H](CC(C)C)C(=O)N[C@H](C(=O)N[C@@H](CC(=O)O)C(=O)N[C@@H](Cc1c[nH]c2ccccc12)C(=O)N[C@@H](Cc1c[nH]c2ccccc12)C(=O)N[C@@H](Cc1ccc(O)cc1)C(=O)NCC(=O)N[C@@H](Cc1ccc(O)cc1)C(=O)NCC(=O)N[C@@H](CCCNC(=N)N)C(=O)N[C@@H](CCCCN)C(=O)N[C@@H](CCCCN)C(=O)N[C@@H](CCCNC(=N)N)C(=O)N[C@@H](CCCNC(=N)N)C(=O)N[C@@H](CCC(N)=O)C(=O)N[C@@H](CCCNC(=N)N)C(=O)N[C@@H](CCCNC(=N)N)C(N)=O)[C@@H](C)CC)[C@@H](C)CC` [Peptide 61] (H-CGLFGEIEELIEEGLKNLIDWWYGYGRKKRRQRR-NH2), the half-maximal inhibitory concentration (IC50) runs as follows: (red cells of human, pH 5.5) 0.97 µM; (red cells of human, pH 7.4) 8.07 µM.
For `CC[C@H](C)[C@H](NC(=O)[C@H](CCCCN)NC(=O)[C@@H](NC(=O)[C@H](CCC(N)=O)NC(=O)[C@H](CCCNC(=N)N)NC(=O)[C@@H](N)CS)[C@@H](C)CC)C(=O)N[C@@H](Cc1c[nH]c2ccccc12)C(=O)N[C@@H](Cc1ccccc1)C(=O)N[C@@H](CCC(N)=O)C(=O)N[C@@H](CC(N)=O)C(=O)N[C@@H](CCCNC(=N)N)C(=O)N[C@@H](CCCNC(=N)N)C(=O)N[C@@H](CCSC)C(=O)N[C@@H](CCCCN)C(=O)N[C@@H](Cc1c[nH]c2ccccc12)C(=O)N[C@@H](CCCCN)C(=O)N[C@@H](CCCCN)C(N)=O` [Peptide 2, reference compound], the IC50 is above 20 µM (red cells of human, pH 5.5) and above 20 µM (red cells of human, pH 7.4).
